Source: ChEMBL document CHEMBL3351476, “The discovery of I-BET726 (GSK1324726A), a potent tetrahydroquinoline ApoA1 up-regulator and selective BET bromodomain inhibitor” (J Med Chem, 2014)
≈ marks a conversion by molar mass, not a printed value. Calls of active or inactive are those of the source. No cut-off for these calls is given here.

Legend:
Cytochrome P450 2C19 = Cytochrome P450 2C19 (Homo sapiens, UniProt P33261); experiment: Inhibition of CYP2C19 (unknown origin) expressed in Escherichia coli bactosomes using 3-butyryl-7-methoxycoumarin as substrate after 10 mins by fluorescence assay; type: ADME
PBMC = experiment: Inhibition of LPS-induced IL6 production in human PBMC after 18 to 24 hrs by immunoassay; type: functional, cell-based
[1] = Clearance in Cynomolgus monkey hepatocytes assessed per gram of tissue at 1 uM by LC-MS/MS analysis; type: ADME, cell-based, Macaca fascicularis, Hepatocyte
Cytochrome P450 2D6 = Cytochrome P450 2D6 (Homo sapiens, UniProt P10635); experiment: Inhibition of recombinant human CYP2D6 expressed in Escherichia coli bactosomes using 4-methylaminomethyl-7-methoyxycoumarin as substrate after 10 mins by fluorescence assay; type: ADME
HepG2 [2] = experiment: Upregulation of ApoA1 in human HepG2 cells after 16 hrs by luciferase reporter assay relative to control; type: functional
[3] = target: Bromodomain-containing protein 3 (Homo sapiens, UniProt Q15059); experiment: Displacement of biotinylated tetra-acetylated histone H4 from His6-tagged BRD3 (1 to 475 aa) (unknown origin) after 1 hr by TR-FRET assay
[4] = target: Bromodomain-containing protein 4 (Homo sapiens, UniProt O60885); experiment: Displacement of biotinylated tetra-acetylated histone H4 from His6-tagged BRD4 (1 to 477 aa) (unknown origin) after 1 hr by TR-FRET assay
Hepatocyte [5] = experiment: Clearance in rat hepatocytes assessed per gram of tissue at 1 uM by LC-MS/MS analysis; type: ADME, cell-based
[6] = target: Bromodomain-containing protein 2 (Homo sapiens, UniProt P25440); experiment: Displacement of biotinylated tetra-acetylated histone H4 from His6-tagged BRD2 (1 to 473 aa) (unknown origin) after 1 hr by TR-FRET assay
Blood = experiment: Inhibition of LPS-induced IL6 production in human whole blood after 24 hrs by immunoassay; type: functional, tissue-based
Cytochrome P450 3A4 [7] = target: T1, Cytochrome P450 3A4 (Homo sapiens, UniProt P08684); experiment: Inhibition of human recombinant CYP3A4 expressed in Escherichia coli bactosomes using 7-benzloxyquinolone as substrate after 10 mins by fluorescence assay; type: ADME
[8] = Solubility of the compound in fasted state simulated intestinal fluid at 125 ug/ml after 16 hrs by HPLC analysis; type: ADME; details: for solubility at 16 h: fasted state simulated intestinal fluid
Hepatocyte [9] = experiment: Clearance in human hepatocytes assessed per gram of tissue at 1 uM by LC-MS/MS analysis; type: ADME, cell-based
Cytochrome P450 3A4 [10] = target: T1, Cytochrome P450 3A4; experiment: Inhibition of human recombinant CYP3A4 expressed in Escherichia coli bactosomes using diethoxyfluorescein as substrate after 10 mins by fluorescence assay; type: ADME
Cytochrome P450 2C9 = Cytochrome P450 2C9 (Homo sapiens, UniProt P11712); experiment: Inhibition of CYP2C9 (unknown origin) expressed in Escherichia coli bactosomes using 7-methoxy-4-trifluoromethylcoumarin-3-acetic acid as substrate after 10 mins by fluorescence assay; type: ADME
Cytochrome P450 1A2 = Cytochrome P450 1A2 (Homo sapiens, UniProt P05177); experiment: Inhibition of CYP1A2 (unknown origin) expressed in Escherichia coli bactosomes using ethoxyresorufin as substrate after 10 mins by fluorescence assay; type: ADME
[11] = Clearance in dog hepatocytes assessed per gram of tissue at 1 uM by LC-MS/MS analysis; type: ADME, cell-based, Canis lupus familiaris, Hepatocyte
Mus musculus [12] = experiment: Antiinflammatory activity in Balb/c mouse assessed as inhibition of LPS-induced PAI-1 mRNA expression in liver administered orally 2 hrs before LPS challenge measured after 2 hrs; type: functional, organism-based
Mus musculus [13] = experiment: Antiinflammatory activity in Balb/c mouse assessed as inhibition of LPS-induced PAI-1 mRNA expression in liver at 3 mg/kg, po 2 hrs before LPS challenge measured after 2 hrs; type: functional, organism-based; design: dose 3 mg/kg
HepG2 [14] = experiment: Upregulation of ApoA1 in human HepG2 cells at 10 uM after 16 hrs by luciferase reporter assay relative to control; type: functional
HepG2 [15] = experiment: Upregulation of ApoA1 in human HepG2 cells at 1.25 uM after 16 hrs by luciferase reporter assay relative to control; type: functional

Sequence of Bromodomain-containing protein 2 (P25440 whole entry, the tested form may be a part): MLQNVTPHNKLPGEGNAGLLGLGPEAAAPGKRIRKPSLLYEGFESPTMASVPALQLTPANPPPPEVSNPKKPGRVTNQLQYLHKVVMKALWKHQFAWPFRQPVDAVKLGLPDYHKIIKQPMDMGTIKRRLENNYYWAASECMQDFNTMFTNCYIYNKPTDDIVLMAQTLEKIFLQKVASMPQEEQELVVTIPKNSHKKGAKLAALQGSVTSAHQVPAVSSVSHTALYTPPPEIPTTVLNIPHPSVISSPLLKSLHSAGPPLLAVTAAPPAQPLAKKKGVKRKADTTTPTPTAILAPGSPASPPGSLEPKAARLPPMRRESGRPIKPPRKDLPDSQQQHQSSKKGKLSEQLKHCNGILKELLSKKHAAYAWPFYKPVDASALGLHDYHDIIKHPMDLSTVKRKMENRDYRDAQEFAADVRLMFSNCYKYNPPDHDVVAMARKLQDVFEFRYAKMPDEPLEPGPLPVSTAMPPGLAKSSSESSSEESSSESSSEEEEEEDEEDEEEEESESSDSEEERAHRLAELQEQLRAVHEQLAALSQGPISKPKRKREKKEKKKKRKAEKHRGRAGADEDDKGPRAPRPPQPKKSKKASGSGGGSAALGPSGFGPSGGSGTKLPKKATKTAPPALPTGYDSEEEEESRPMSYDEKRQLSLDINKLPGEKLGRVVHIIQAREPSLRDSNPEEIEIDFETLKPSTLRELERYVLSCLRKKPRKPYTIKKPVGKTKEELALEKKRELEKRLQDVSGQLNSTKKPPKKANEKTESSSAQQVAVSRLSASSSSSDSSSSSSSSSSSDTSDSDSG
Sequence of Bromodomain-containing protein 3 (Q15059 whole entry, the tested form may be a part): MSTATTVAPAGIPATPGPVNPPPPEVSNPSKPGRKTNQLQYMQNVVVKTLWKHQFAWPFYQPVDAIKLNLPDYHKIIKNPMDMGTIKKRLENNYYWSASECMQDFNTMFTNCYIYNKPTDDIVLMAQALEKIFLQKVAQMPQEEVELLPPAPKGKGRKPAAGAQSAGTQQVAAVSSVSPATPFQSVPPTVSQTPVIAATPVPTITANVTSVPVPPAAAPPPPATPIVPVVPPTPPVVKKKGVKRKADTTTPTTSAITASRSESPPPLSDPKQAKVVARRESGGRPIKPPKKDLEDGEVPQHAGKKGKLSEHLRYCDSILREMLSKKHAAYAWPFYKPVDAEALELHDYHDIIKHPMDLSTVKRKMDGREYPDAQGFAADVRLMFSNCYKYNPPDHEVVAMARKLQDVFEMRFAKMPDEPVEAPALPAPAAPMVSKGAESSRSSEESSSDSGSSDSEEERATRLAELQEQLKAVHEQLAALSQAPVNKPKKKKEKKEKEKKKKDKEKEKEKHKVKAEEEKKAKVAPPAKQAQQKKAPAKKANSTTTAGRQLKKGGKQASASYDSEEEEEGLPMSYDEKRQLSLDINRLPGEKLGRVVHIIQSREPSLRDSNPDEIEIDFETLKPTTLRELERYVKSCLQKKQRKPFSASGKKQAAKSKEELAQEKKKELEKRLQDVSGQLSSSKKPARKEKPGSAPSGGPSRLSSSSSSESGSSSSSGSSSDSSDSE
T1 sequence (P08684 whole entry): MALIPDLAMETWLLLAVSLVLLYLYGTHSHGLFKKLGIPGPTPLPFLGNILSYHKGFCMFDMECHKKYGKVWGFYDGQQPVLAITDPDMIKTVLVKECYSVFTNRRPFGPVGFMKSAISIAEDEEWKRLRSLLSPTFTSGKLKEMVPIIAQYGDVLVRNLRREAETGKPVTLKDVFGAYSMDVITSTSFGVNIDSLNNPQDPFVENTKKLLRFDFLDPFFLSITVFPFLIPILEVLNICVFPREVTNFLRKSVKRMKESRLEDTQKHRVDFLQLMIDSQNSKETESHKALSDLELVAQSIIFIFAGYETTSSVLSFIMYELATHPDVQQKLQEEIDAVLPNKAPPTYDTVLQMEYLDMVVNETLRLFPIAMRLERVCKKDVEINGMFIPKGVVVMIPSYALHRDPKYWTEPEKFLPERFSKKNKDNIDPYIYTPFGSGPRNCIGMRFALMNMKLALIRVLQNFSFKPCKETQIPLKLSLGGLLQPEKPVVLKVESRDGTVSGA
Sequence of Cytochrome P450 2D6 (P10635 whole entry): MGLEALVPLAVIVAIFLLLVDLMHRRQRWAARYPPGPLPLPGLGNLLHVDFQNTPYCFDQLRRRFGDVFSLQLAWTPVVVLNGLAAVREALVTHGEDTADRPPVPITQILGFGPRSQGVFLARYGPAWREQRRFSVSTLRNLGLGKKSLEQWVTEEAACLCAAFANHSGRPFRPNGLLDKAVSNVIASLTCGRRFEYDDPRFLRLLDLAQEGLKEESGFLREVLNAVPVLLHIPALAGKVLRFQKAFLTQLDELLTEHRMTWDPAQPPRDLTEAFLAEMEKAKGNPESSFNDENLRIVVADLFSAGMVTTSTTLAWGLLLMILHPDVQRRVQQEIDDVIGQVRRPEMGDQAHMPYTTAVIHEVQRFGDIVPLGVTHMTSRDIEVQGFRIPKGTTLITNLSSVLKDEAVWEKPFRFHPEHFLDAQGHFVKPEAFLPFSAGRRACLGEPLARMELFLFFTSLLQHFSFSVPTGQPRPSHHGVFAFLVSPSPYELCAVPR
Sequence of Cytochrome P450 2C19 (P33261 whole entry): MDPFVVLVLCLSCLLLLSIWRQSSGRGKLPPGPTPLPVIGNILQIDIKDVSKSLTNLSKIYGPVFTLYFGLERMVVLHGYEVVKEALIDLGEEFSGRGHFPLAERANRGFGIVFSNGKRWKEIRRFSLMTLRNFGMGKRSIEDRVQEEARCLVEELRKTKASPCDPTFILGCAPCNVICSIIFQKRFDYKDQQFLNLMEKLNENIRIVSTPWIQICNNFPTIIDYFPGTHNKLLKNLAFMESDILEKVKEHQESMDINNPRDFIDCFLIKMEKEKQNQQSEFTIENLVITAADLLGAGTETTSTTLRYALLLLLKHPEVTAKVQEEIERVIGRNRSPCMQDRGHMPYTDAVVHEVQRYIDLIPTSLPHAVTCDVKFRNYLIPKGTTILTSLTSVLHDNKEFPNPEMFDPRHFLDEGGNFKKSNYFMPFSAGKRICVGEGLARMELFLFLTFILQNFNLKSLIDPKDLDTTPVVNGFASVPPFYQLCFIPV
Sequence of Cytochrome P450 1A2 (P05177 whole entry): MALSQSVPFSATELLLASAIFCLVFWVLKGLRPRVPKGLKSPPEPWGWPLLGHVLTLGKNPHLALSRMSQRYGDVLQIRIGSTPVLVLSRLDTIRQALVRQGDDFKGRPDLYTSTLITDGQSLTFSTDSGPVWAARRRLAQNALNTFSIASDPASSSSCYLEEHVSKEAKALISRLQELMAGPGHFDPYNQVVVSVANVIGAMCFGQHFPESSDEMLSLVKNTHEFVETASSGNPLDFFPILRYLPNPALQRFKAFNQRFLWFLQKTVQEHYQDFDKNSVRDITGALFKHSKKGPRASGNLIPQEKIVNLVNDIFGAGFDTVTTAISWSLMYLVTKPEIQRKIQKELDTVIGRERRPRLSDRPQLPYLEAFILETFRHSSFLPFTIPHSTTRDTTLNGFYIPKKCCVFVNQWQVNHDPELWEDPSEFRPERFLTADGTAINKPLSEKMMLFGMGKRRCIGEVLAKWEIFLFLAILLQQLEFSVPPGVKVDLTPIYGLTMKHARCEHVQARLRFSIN
Sequence of Cytochrome P450 2C9 (P11712 whole entry): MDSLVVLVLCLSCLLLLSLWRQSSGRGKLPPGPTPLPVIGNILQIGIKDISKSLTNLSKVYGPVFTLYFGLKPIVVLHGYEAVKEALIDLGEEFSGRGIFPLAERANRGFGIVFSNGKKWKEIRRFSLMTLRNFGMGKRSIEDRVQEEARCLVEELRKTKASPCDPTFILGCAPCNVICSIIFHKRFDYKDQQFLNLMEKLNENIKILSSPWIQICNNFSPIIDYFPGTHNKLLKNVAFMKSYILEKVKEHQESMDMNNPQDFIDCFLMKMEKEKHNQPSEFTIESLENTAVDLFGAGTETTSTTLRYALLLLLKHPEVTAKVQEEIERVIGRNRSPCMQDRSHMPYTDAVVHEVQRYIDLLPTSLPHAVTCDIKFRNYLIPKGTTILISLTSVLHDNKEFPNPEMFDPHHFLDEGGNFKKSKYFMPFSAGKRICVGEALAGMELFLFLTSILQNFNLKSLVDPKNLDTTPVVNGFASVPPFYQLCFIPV

Row | IC50 [3] | IC50 [4] | IC50 [6] | SMILES | pEC170 (HepG2 [2]) | also measured
1 | 316 nM | 398 nM | 501 nM | CC(=O)N1c2ccc(-c3ccc(CN4CCCCC4)cc3)cc2[C@H](Nc2ccccc2)C[C@@H]1C | 8 | IC50 (Cytochrome P450 2C19): 20000 nM; IC50 (PBMC): 3.16 nM; CLH [1]: 6 mL/min/g; IC50 (Cytochrome P450 2D6): 8000 nM; CLH (Hepatocyte [5]): 0.8 mL/min/g; IC50 (Blood): 63.1 nM; IC50 (Cytochrome P450 3A4 [7]): 10000 nM; solubility ([8]; simulated gi fluid, 16 h): 125 µg/mL (≈ 276 µM); CLH (Hepatocyte [9]): 1.8 mL/min/g; IC50 (Cytochrome P450 3A4 [10]): 2000 nM; IC50 (Cytochrome P450 2C9): 14000 nM; IC50 (Cytochrome P450 1A2): > 33000 nM; CLH [11]: 0.9 mL/min/g
2 | 25100 nM | 25100 nM | 25100 nM | CC(=O)N1c2ccc(-c3ccc(CN4CCCCC4)cc3)cc2[C@@H](Nc2ccccc2)C[C@H]1C | 5.9 | –
3 | 158 nM | 251 nM | 200 nM | CC(=O)N1c2ccc(-c3ccc(C(=O)O)cc3)cc2[C@H](Nc2ccc(C)cc2)C[C@@H]1C | 8 | –
4 | – | – | – | CC(=O)N1c2ccc(-c3ccc(C(=O)O)cc3)cc2[C@H](Nc2ccc(Cl)cc2)C[C@@H]1C | – | inhibition (Mus musculus [12]): Dose-dependent effect; inhibition (Mus musculus [13]): Active
5 | – | – | – | CC(=O)N1c2ccccc2C(Nc2ccccc2)CC1C (mixture of isomers) | – | fold change (FC) (HepG2 [14]): 2.3; fold change (FC) (HepG2 [15]): 1.7
6 | – | – | – | CCC(=O)N1c2ccccc2C(Nc2ccccc2)CC1C (mixture of isomers) | – | fold change (FC) (HepG2 [14]): 1.4; fold change (FC) (HepG2 [15]): 1.6
7 | – | – | – | CCCC(=O)N1c2ccccc2C(Nc2ccccc2)CC1C (mixture of isomers) | – | fold change (FC) (HepG2 [14]): <=1.1
8 | – | – | – | CCCCC(=O)N1c2ccccc2C(Nc2ccccc2)CC1C (mixture of isomers) | – | fold change (FC) (HepG2 [14]): <=1.1
9 | 398 nM | 501 nM | 631 nM | CC(=O)N1c2ccc(-c3ccc(C(=O)O)cc3)cc2[C@H](Nc2ccccc2)C[C@@H]1C (racemic) | 7.3 | solubility at 16 h [8]: 118 µg/mL (≈ 295 µM)
10 | – | – | – | CC(=O)N1c2ccccc2[C@@H](Nc2ccc(C)cc2)C[C@H]1C (racemic) | – | fold change (FC) (HepG2 [15]): 1.7
11 | – | – | – | CC(=O)N1c2ccccc2[C@@H](Nc2ccc(C)cc2)C[C@@H]1C (racemic) | – | fold change (FC) (HepG2 [15]): 1.1
12 | – | – | – | CC(=O)N1c2ccccc2[C@H](Nc2ccccc2)C[C@@H]1C (racemic) | – | fold change (FC) (HepG2 [15]): 1.7
13 | 501 nM | 794 nM | 794 nM | CC(=O)N1c2ccc(-c3ccccc3)cc2[C@H](Nc2ccccc2)C[C@@H]1C (racemic) | 7 | –
14 | 794 nM | 631 nM | 1000 nM | CC(=O)N1c2ccc(-c3ccc(C#N)cc3)cc2[C@H](Nc2ccccc2)C[C@@H]1C (racemic) | 7 | solubility at 16 h [8]: 57 µg/mL (≈ 149 µM)
15 | 1000 nM | 1260 nM | 1260 nM | COC(=O)c1ccc(-c2ccc3c(c2)[C@H](Nc2ccccc2)C[C@H](C)N3C(C)=O)cc1 (racemic) | 7.4 | solubility at 16 h [8]: 69 µg/mL (≈ 166 µM)
16 | 1260 nM | 1000 nM | 2000 nM | CC(=O)N1c2ccc(-c3ccc(C(F)(F)F)cc3)cc2[C@H](Nc2ccccc2)C[C@@H]1C (racemic) | 6.2 | –
17 | 631 nM | 631 nM | 1260 nM | COc1ccc(-c2ccc3c(c2)[C@H](Nc2ccccc2)C[C@H](C)N3C(C)=O)cc1 (racemic) | 7.2 | solubility at 16 h [8]: 92 µg/mL (≈ 238 µM)
18 | 501 nM | 501 nM | 794 nM | CC(=O)N1c2ccc(-c3ccc(CO)cc3)cc2[C@H](Nc2ccccc2)C[C@@H]1C (racemic) | 7.5 | solubility at 16 h [8]: 73 µg/mL (≈ 189 µM)
19 | 631 nM | 501 nM | 794 nM | CC(=O)N1c2ccc(-c3ccc(CN4CCOCC4)cc3)cc2[C@H](Nc2ccccc2)C[C@@H]1C (racemic) | 7.6 | solubility at 16 h [8]: 107 µg/mL (≈ 235 µM)

Row | IC50 [3] | IC50 [4] | IC50 [6] | SMILES | pEC170 (HepG2 [2]) | also measured
20 | 398 nM | 794 nM | 1260 nM | CC(=O)N1c2ccc(-c3cccc(CN4CCCCC4)c3)cc2[C@H](Nc2ccccc2)C[C@@H]1C (racemic) | 7.1 | solubility at 16 h [8]: 99 µg/mL (≈ 218 µM)
21 | – | – | – | CC(=O)N1c2ccc(-c3ccc(CN4CCCCC4)cc3)cc2[C@H](Nc2ccccc2)C[C@@H]1C (racemic) | 7.9 | solubility at 16 h [8]: 111 µg/mL (≈ 245 µM)
22 | 6310 nM | 6310 nM | 15800 nM | CC(=O)N1c2ccc(-c3ccc(CN4CCCCC4)cc3)cc2[C@H](NC=O)C[C@@H]1C (racemic) | 5.3 | –
23 | 25100 nM | 25100 nM | 50100 nM | CC(=O)N1c2ccc(-c3ccc(CN4CCCCC4)cc3)cc2[C@H](N)C[C@@H]1C (racemic) | <5 | –
24 | 501 nM | 631 nM | 501 nM | COC(=O)c1ccc(-c2ccc3c(c2)[C@H](Nc2ccc(C(C)(C)C)cc2)C[C@H](C)N3C(C)=O)cc1 (racemic) | 6.9 | –
25 | 316 nM | 316 nM | 1000 nM | CC(=O)N1c2ccc(-c3ccc(C(=O)O)cc3)cc2[C@H](Nc2ccc(S(C)(=O)=O)cc2)C[C@@H]1C (racemic) | 5.4 | –
26 | 501 nM | 631 nM | 1260 nM | COC(=O)c1ccc(-c2ccc3c(c2)[C@H](Nc2ccc(S(C)(=O)=O)cc2)C[C@H](C)N3C(C)=O)cc1 (racemic) | 6 | –
27 | 316 nM | 631 nM | 501 nM | CC(=O)N1c2ccc(-c3ccc(C(=O)O)cc3)cc2[C@H](Nc2ccc(C)cc2)C[C@@H]1C (racemic) | 7.8 | –
28 | 1000 nM | 794 nM | 1580 nM | COC(=O)c1ccc(-c2ccc3c(c2)[C@H](Nc2ccc(F)cc2)C[C@H](C)N3C(C)=O)cc1 (racemic) | 7.3 | –
29 | 794 nM | 1000 nM | 1260 nM | CC(=O)N1c2ccc(-c3ccc(C#N)cc3)cc2[C@H](Nc2cccc(F)c2)C[C@@H]1C (racemic) | 6.8 | –
30 | 794 nM | 1000 nM | 1580 nM | COc1cccc(N[C@@H]2C[C@H](C)N(C(C)=O)c3ccc(-c4ccc(C#N)cc4)cc32)c1 (racemic) | 6.7 | –
31 | 501 nM | 501 nM | 631 nM | COc1cccc(N[C@@H]2C[C@H](C)N(C(C)=O)c3ccc(-c4ccc(C(=O)O)cc4)cc32)c1 (racemic) | 7.3 | –
32 | 501 nM | 631 nM | 631 nM | COc1ccccc1N[C@@H]1C[C@H](C)N(C(C)=O)c2ccc(-c3ccc(C(=O)O)cc3)cc21 (racemic) | 7.6 | –
33 | 1260 nM | 1000 nM | 1000 nM | CC(=O)N1c2ccc(-c3ccc(CN4CCCCC4)cc3)cc2[C@H](Nc2ccc(Cl)cc2)C[C@@H]1C (racemic) | 8 | –
34 | 501 nM | 794 nM | 794 nM | CC(=O)N1c2ccc(-c3cccc(C(=O)O)c3)cc2[C@H](Nc2ccc(Cl)cc2)C[C@@H]1C (racemic) | 7.4 | –
35 | 1000 nM | 1000 nM | 2000 nM | COC(=O)c1cccc(-c2ccc3c(c2)[C@H](Nc2ccc(Cl)cc2)C[C@H](C)N3C(C)=O)c1 (racemic) | 7.2 | –
36 | 398 nM | 501 nM | 794 nM | CC(=O)N1c2ccc(-c3ccc(C(N)=O)cc3)cc2[C@H](Nc2ccc(Cl)cc2)C[C@@H]1C (racemic) | 7.8 | –
37 | 2510 nM | 3980 nM | 3980 nM | CC(=O)N1c2ccc(-c3ccccc3C)cc2[C@H](Nc2ccc(Cl)cc2)C[C@@H]1C (racemic) | 5.6 | –
38 | 1580 nM | 2510 nM | 6310 nM | COc1ccc(-c2ccc3c(c2)[C@H](Nc2ccccc2)CCN3C(C)=O)cc1 (racemic) | 6.1 | –

Row | SMILES | IC50 [3] | IC50 [4] | IC50 [6] | pEC170 (HepG2 [2]) | also measured
39 | CC(=O)N1c2ccc(-c3ccc(C(=O)O)cc3)cc2[C@H](Nc2ccc(Cl)cc2)C[C@@H]1C (racemic) | 398 nM | – | 398 nM | 7.8 | –
